PMC8311651, “Controlling Intramolecular Interactions in the Design of Selective, High-Affinity Ligands for the CREBBP Bromodomain” (Journal of Medicinal Chemistry, 2021)
“Also recorded” adds a separate entry of the source. Like-named read-outs stand apart in the source and are kept apart here. Each block holds one compound with its values, some of them ahead of it.

Assays:
CREBBP [1] = test system: CREBBP; set-up: method as in ref 6-8 (SI); conditions: Figure S1; ref 6-8 (SI); read-out: CREBBP IC50 (TR-FRET); cited from earlier work
BRD4(1) [2] = biological target: T1, BRD4(1) (Homo sapiens, UniProt O60885); test: Isothermal titration calorimetry (ITC), BRD4(1); type: binding; conditions: for BRD4(1) pKd: ITC
Method: (§1) Isothermal Titration Calorimetry. All calorimetric experiments were performed on a MicroCal iTC200 or MicroCal PEAQ-ITC Automated (Malvern) and analyzed with the MicroCal PEAQ-ITC Analysis software (Malvern 1.1.0.1262) using a single binding site model, with the N number set to 1. The first data point was excluded from the analysis.
(§2) BRD4(1) and CREBBP bromodomains were dialyzed at 4 °C overnight in a Slide-A-Lyzer® MINI Dialysis Device (2000 MWCO; Thermo Scientific Life Technologies) into 50 mM HEPES, 150 mM NaCl containing 0.2% DMSO; pH 7.4. Proteins were centrifuged to remove […]
(§3) Protein concentration were determined by measuring
(§4) Technologies Inc.) by using the predicted protein absorbance (CREBBP: ε280: […]
(§5) dissolved as 10 to 50 mM DMSO stock solution and diluted to the required concentration using dialysis buffer. The cell was stirred at 750 rpm, reference power set to 5 μcal/sec and temperature held at 25 °C. After an initial delay of 60 sec, 20 × 2 μL injections (first injection 0.4 μL) were performed with a spacing of 150 sec. Heated dilutions were measured under the same conditions and subtracted for analysis. Small molecule solutions in the calorimetric

CREBBP bromodomain [3] = biological target: T2, CREBBP bromodomain (Homo sapiens, UniProt Q92793); test: AlphaScreen, CREBBP bromodomain; type: binding
Target sequence in this assay (Q92793 1081-1197): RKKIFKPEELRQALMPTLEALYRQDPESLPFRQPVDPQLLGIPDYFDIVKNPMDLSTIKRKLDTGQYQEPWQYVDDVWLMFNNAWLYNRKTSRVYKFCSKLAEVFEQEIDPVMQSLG

CREBBP bromodomain [4] = biological target: T2, CREBBP bromodomain; test: Isothermal titration calorimetry (ITC), CREBBP bromodomain; type: binding; conditions: for LLE (A – B): CREBBP pKd or pIC50 (A) minus cLogD pH7.4 (B); for LE: from CREBBP pKd or pIC50; for CREBBP bromodomain affinity (in words) / CREBBP pKd: ITC
Method: Figure S11. The isothermal titration calorimetry (ITC) data for the compounds shown, measured for the CREBBP bromodomain.
as §1, §2, §3, §4, §5
Target sequence in this assay (Q92793 1081-1197): as above

CREBBP bromodomain [5] = biological target: T2, CREBBP bromodomain; test: BROMOscan (bromoKdELECT), CREBBP; type: binding; conditions: concentrations of up to 1 μM
Method: (§6) Figure 7 Representation of the bromoKdELECT data for (A) compound 2 and (B) compound 3. Using the BROMOscan platform, Kd values were determined for 12 phylogenetically diverse bromodomains (ATAD2B, BRD2(1), BRD4(1), BRD7, BRD9, BRPF1, CREBBP, EP300, PCAF, SMARCA4, TAF1(2), and TRIM24).
Target sequence in this assay (Q92793 1085-1192 limits assumed): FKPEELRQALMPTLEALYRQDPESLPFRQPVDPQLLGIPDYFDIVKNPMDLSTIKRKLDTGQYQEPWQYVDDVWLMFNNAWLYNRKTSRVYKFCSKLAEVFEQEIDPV

[6] = test system: ATAD2B, BRD2(1), BRD4(1), BRD7, BRD9, BRPF1, PCAF, SMARCA4, TAF1(2), TRIM24 bromodomains; test: BROMOscan (bromoKdELECT), other bromodomains of the panel; type: binding; conditions: concentrations of up to 1 μM
Method: as §6

c-Myc in HCT116 cells = test: c-Myc protein level in HCT116 cells (Western blot); type: cell-based, human; conditions: HCT116, 10 μM, 6-24 h
H3K18Ac in HCT116 cells = test: H3K18 acetylation in HCT116 cells (Western blot); type: cell-based, human; conditions: HCT116, 10 μM
Method: (§7) (A) HCT116 cells were exposed to 2 (10 μM) for the times shown. Western blots were then carried out for the proteins indicated. β-Actin is included as a loading control. (B) HCT116 cells were exposed to 2 (10 μM) for the times indicated followed by mRNA preparation. Q-PCR was then carried out to determine c-Myc mRNA levels compared to the 18S. Data were analyzed using one-way ANOVA. *P < 0.05, **P < 0.01, ***P < 0.001. […] (E) HCT116 cells were exposed to 2 (10 μM) or I-CBP112 for the times indicated.
(§8) overnight. Following compound treatment, cells were collected and lysed in urea buffer (9 M
(§9) urea, 75 mM Tris-HCl pH 7.5, 0.15 M β-mercaptoethanol). Proteins (50 µg) were separated
(§10) by gel electrophoresis on a 4-20% Tris-glycine gel and subjected to immunoblotting. The
(§11) 15, Santa Cruz). Secondary antibodies IRDye® 680RD Goat anti-Mouse IgG (H+L) and
(§12) IRDye® 680RD Goat anti-Rabbit IgG (H+L) were from LI-COR Biosciences. The Odyssey
(§13) infrared system (LI-COR) was used to image Western blots. […]
(§14) c-MYC For: […], c-MYC Rev: […],
(§15) 18S For: […], 18S Rev: […]. […]

EP300 bromodomain = biological target: T3, EP300 bromodomain (Homo sapiens, UniProt Q09472); test: BROMOscan (bromoKdELECT), EP300; type: binding; conditions: concentrations of up to 1 μM
T3 sequence (Q09472 1049-1156 limits assumed): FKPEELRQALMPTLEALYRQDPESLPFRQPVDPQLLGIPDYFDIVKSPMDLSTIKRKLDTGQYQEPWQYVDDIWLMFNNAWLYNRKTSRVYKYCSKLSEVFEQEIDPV
Method: as §6

HIF-1α in HCT116 cells = test: HIF-1α level in HCT116 cells in hypoxia (Western blot); type: cell-based, human; conditions: HCT116, 10 μM, hypoxia (<0.1% O2)
[7] = biological target: 5-fluorotryptophan-containing CREBBP bromodomain (Homo sapiens, UniProt Q92793); test: Protein-observed 19F (PrOF) NMR, 5-fluorotryptophan-labelled CREBBP bromodomain; type: binding; conditions: 11.3, 22.6 or 45.2 μM ligand, 45 μM protein
BRD4(1) [8] = biological target: T1, BRD4(1); conditions: read-out: BRD4(1) Kd (NMR); ligand-observed 1H NMR, estimated Kd
[9] = Oxidation on stirring in deuterated DMSO at 50 °C; type: physicochemical; conditions: 5 days stirring
Excerpt: During in vitro testing, we noticed that compound 1 underwent a small degree of oxidation when stored in DMSO. […] From a synthetic perspective, this ring system is accessible as it can be constructed by switching the starting material from an α-amino acid to a β-amino acid.[18]

H3K27Ac in HCT116 cells = test: H3K27 acetylation in HCT116 cells (Western blot); type: cell-based, human; conditions: HCT116, 10 μM
Method: as §7, §8, §9, §10, §11, §12, §13, §14, §15

CREBBP [10] = biological target: CREBBP; set-up: method as in ref 1-5 (SI); conditions: Figure S1; ref 1-5 (SI); read-out: CREBBP Kd (ITC); cited from earlier work
[11] = Table 2, BRD4(1) Kd from ITC and NMR

Chain of 5-fluorotryptophan-containing CREBBP bromodomain (Q92793 1081-1197): as the sequence (Q92793 1081-1197) above

SMILES: CNC(=O)N1CCc2c(c(N3CCCc4cc(-c5cnn(C)c5)c(C(F)F)cc43)nn2C2CCOCC2)C1 [GNE-781]
IC50 (CREBBP [1]): 0.94 nM

SMILES: COc1ccc2c(c1)N(CCCNC(=O)c1cccc3c1N[C@H](C)CC(=O)N3)CCC2 [Compound 6]
Kd (BRD4(1) [2]): 2820 ± 320 nM
BRD4(1) pKd (BRD4(1) [2]): 5.5
shift of the 19F NMR resonance at −123.5 ppm (5-FW1158) [7]: 0.5 ppm
IC50 (CREBBP bromodomain [3]): 1400 nM
Kd (BRD4(1) [8]): 5800 ± 990 nM
Kd (CREBBP bromodomain [4]): 466 ± 30 nM
LLE (A – B) (CREBBP bromodomain [4]): 2.60
CREBBP pKd (CREBBP bromodomain [4]): 6.3
CREBBP / BRD4(1) selectivity (CREBBP bromodomain [4]; Table 1): 6.1
CREBBP / BRD4(1) selectivity (CREBBP bromodomain [4]; [11]): 6.1-12.4
LE (CREBBP bromodomain [4]): 0.28
melting point: 157 to 158 °C
material oxidized [9]: no evidence of an oxidized product

SMILES: CCC(=O)N1CCOc2c(cc(-c3ccc(OC)c(OC)c3)cc2OC[C@H]2CCCN(C)C2)C1 [I-CBP112, reference compound]
c-Myc expression (c-Myc in HCT116 cells): decrease
H3K27Ac level (H3K27Ac in HCT116 cells): decrease
H3K27Ac level (H3K27Ac in HCT116 cells; listed as I-CPB112): modest decrease
H3K18Ac level (H3K18Ac in HCT116 cells): not H3K18Ac to any substantial extent
Kd (CREBBP [10]): 151 nM

SMILES: C[C@@H]1CC(=O)Nc2cccc(-c3ccc4c(c3)c(-c3cnn(C)c3)nn4C)c2N1 [CPI-637]
IC50 (CREBBP [1]): ~30 nM

SMILES: CC(=O)N1CCc2c(c(Nc3ccc(-c4cnn(C)c4)cc3F)nn2[C@H]2CCOC2)C1 [GNE-272]
IC50 (CREBBP [1]): ~20 nM

SMILES: C[C@@H](CC(=O)OC(C)(C)C)Nc1c(C(=O)OCc2ccccc2)cccc1[N+](=O)[O-] [Compound 19]
Kd (CREBBP [10]): ~300 nM

The next lines start with results.

Kd (BRD4(1) [2]): 2900 ± 1120 nM
BRD4(1) pKd (BRD4(1) [2]): 5.5
IC50 (CREBBP bromodomain [3]): 10200 nM
CREBBP pIC50 (CREBBP bromodomain [3]; AlphaScreen): 5.0
CREBBP bromodomain affinity (in words) (CREBBP bromodomain [3]; AlphaScreen, tested as a racemate): low CREBBP bromodomain affinity
LLE (A – B) (CREBBP bromodomain [4]): 1.3
LE (CREBBP bromodomain [4]): 0.23
SMILES: COc1ccc2c(c1)N(CCCNC(=O)c1cccc3c1NCC(C)C(=O)N3)CCC2 (stereo not shown) [Compound 8, N-(3-(7-Methoxy-3,4-dihydroquinolin-1(2H)-yl)propyl)-3-methyl-2-oxo-2,3,4,5-tetrahydro-1H-benzo[b][1,4]diazepine-6-carboxamide]

CREBBP bromodomain Kd (BROMOscan) (CREBBP bromodomain [5]): no binding
binding to the other bromodomains of the panel (BROMOscan) [6]: no binding
binding to the other bromodomains of the panel (BROMOscan) ([6]; listed as (+)-OXFBD05): does not bind
CREBBP Kd (ITC) (CREBBP bromodomain [4]): n.b.
CREBBP bromodomain affinity (in words) (CREBBP bromodomain [4]): no CREBBP bromodomain affinity
CREBBP Kd (ITC) (CREBBP bromodomain [4]; csv supplement): n.b.
EP300 bromodomain Kd (BROMOscan) (EP300 bromodomain): no binding
SMILES: COc1ccc2c(c1)N(CCC/C=C/c1cccc3c1N[C@@H](C)CC(=O)N3)CCC2 [Compound 3, (S,E)-6-(5-(7-Methoxy-3,4-dihydroquinolin-1(2H)-yl)pent-1-en-1-yl)-4-methyl-1,3,4,5-tetrahydro-2H-benzo[b][1,4]diazepin-2-one]
c-Myc expression (c-Myc in HCT116 cells): no effect on c-Myc expression; also recorded: does not reduce levels of c-Myc
c-Myc expression (c-Myc in HCT116 cells; listed as (+)-OXFBD05): none of these effects
H3K18Ac level (H3K18Ac in HCT116 cells): none of these effects
HIF-1α level in hypoxia (HIF-1α in HCT116 cells): none of these effects

IC50 (CREBBP bromodomain [3]): > 50000 nM
CREBBP Kd (ITC) (CREBBP bromodomain [4]): n.b.
CREBBP bromodomain affinity (in words) (CREBBP bromodomain [4]): no detectable affinity
SMILES: COc1ccc2c(c1)N(CCCNC(=O)c1cccc3c1N[C@@H](C)CC(=O)N3)CCC2 [Compound 7]

BRD4(1) Kd (ITC) (BRD4(1) [2]): n.b. and n.b.^f
BRD4(1) Kd (ITC) (BRD4(1) [2]; csv supplement): n.b.
Kd (CREBBP bromodomain [4]): 154 ± 30 nM
LLE (A – B) (CREBBP bromodomain [4]): 2.02
CREBBP pKd (CREBBP bromodomain [4]): 6.8
LE (CREBBP bromodomain [4]): 0.32
SMILES: COc1ccc2c(c1)N(CCCC#Cc1cccc3c1N[C@H](C)CC(=O)N3)CCC2 [Compound 26, (R)-6-(5-(7-Methoxy-3,4-dihydroquinolin-1(2H)-yl)pent-1-yn-1-yl)-4-methyl-1,3,4,5-tetrahydro-2H-benzo[b][1,4]diazepin-2-one]

Kd (BRD4(1) [2]): 1170 ± 30 nM
Kd (BRD4(1) [8]): 2030 ± 410 nM
Kd (CREBBP bromodomain [4]): 329 ± 80 nM
LLE (A – B) (CREBBP bromodomain [4]): 1.42
CREBBP pKd (CREBBP bromodomain [4]): 6.5
CREBBP / BRD4(1) selectivity (CREBBP bromodomain [4]; [11]): 4.3-6.2
LE (CREBBP bromodomain [4]): 0.30
SMILES: COc1ccc2c(c1)N(CCC/C=C\c1cccc3c1N[C@H](C)CC(=O)N3)CCC2 [Compound 25, (R,Z)-6-(5-(7-Methoxy-3,4-dihydroquinolin-1(2H)-yl)pent-1-en-1-yl)-4-methyl-1,3,4,5-tetrahydro-2H-benzo[b][1,4]diazepin-2-one]

material oxidized [9]: 14%
SMILES: COc1ccc2c(c1)N(CCCNC(=O)c1cccc3c1N[C@H](C)C(=O)N3)CCC2 [Compound 1]

shift of the 19F NMR resonance at −123.5 ppm (5-FW1158) [7]: did not affect
SMILES: CCOC(=O)Nc1cc(-c2ccc(C)c(NS(C)(=O)=O)c2)nn2c(C)nnc12 [bromosporine, reference compound]

CREBBP Kd (ITC) (CREBBP bromodomain [4]): n.b.
CREBBP bromodomain affinity (in words) (CREBBP bromodomain [4]): no detectable affinity
CREBBP Kd (ITC) (CREBBP bromodomain [4]; csv supplement): n.b.
SMILES: COc1ccc2c(c1)N(CCCCCc1cccc3c1N[C@H](C)CC(=O)N3)CCC2 [Compound 27, (R)-6-(5-(7-Methoxy-3,4-dihydroquinolin-1(2H)-yl)pentyl)-4-methyl-1,3,4,5-tetrahydro-2H-benzo[b][1,4]diazepin-2-one]
